ChEMBL document CHEMBL1764967, “Introduction of aromatic group on 4'-OH of α-GalCer manipulated NKT cell cytokine production” (Bioorg Med Chem, 2011)
Activity calls are given as the source filed them.

Legend:
N38.2H4 = experiment: Immunostimulatory activity in mouse N38.2H4 cells expressing TCR assessed as IL2 level after 24 by ELISA in presence of mouse CD1d protein; format: functional, cell-based
Mus musculus [1] = organism: Mus musculus; experiment: Immunostimulatory activity in mouse DN3A4-1.2 cells expressing TCR assessed as IL2 level after 24 hrs by ELISA in presence of mouse CD1d protein; format: functional, cell-based
Mus musculus [2] = experiment: Immunostimulatory activity in C57BL/6 mouse assessed as IL4 level in serum at 10 ug/ml, iv after 2 to 24 hrs by ELISA; format: functional, organism-based; details: TDE = time-dependent effect
Mus musculus [3] = experiment: Immunostimulatory activity in C57BL/6 mouse assessed as INF-gamma level in serum at 10 ug/ml, iv after 2 to 24 hrs by ELISA; format: functional, organism-based; details: TDE = time-dependent effect
Mus musculus [4] = experiment: Immunostimulatory activity in C57BL/6 mouse assessed as maximum INF-gamma level in serum at 10 ug/ml, iv after 2 hrs by ELISA; format: functional, organism-based
Mus musculus [5] = experiment: Immunostimulatory activity in C57BL/6 mouse assessed as maximum IL4 level in serum at 10 ug/ml, iv after 2 hrs by ELISA; format: functional, organism-based
Mus musculus [6] = organism: Mus musculus; experiment: Immunostimulatory activity in mouse N38.2H4 hybridoma cells expressing TCR assessed as IL2 level after 24 to 48 hrs by ELISA; format: functional
Mus musculus [7] = organism: Mus musculus; experiment: Immunostimulatory activity in mouse DN3A4-1.4 hybridoma cells expressing TCR assessed as IL2 level after 24 to 48 hrs by ELISA; format: functional
Mus musculus [8] = organism: Mus musculus; experiment: Immunostimulatory activity in mouse DN3A4-1.2 hybridoma cells expressing TCR assessed as IL2 level after 24 to 48 hrs by ELISA; format: functional
Splenocyte [9] = experiment: Immunostimulatory activity in C57BL/6 mouse Splenocytes assessed as release of IL4 after 72 hrs by ELISA; format: functional, cell-based
Mus musculus [10] = experiment: Immunostimulatory activity in C57BL/6 mouse assessed as maximum INF-gamma level in serum at 10 ug/ml, iv after 12 hrs by ELISA; format: functional, organism-based
Mus musculus [11] = experiment: Immunostimulatory activity in C57BL/6 mouse assessed as maximum IL4 level in serum at 10 ug/ml, iv after 4 hrs by ELISA; format: functional, organism-based
Splenocyte [12] = experiment: Immunostimulatory activity in C57BL/6 mouse Splenocytes assessed as release of IL4 at 1000 ng/ml after 72 hrs by ELISA; format: functional, cell-based

Measured: Activity

CCCCCCCCCCCCCCCCCCCCCCCCCC(=O)N[C@@H](CO[C@H]1O[C@H](CO)[C@H](O)[C@H](O)[C@H]1O)[C@H](O)[C@H](O)CCCCCCCCCCCCCC
active: N38.2H4 | Mus musculus [1] | Mus musculus [2] tde | Mus musculus [3] tde | Mus musculus [4] | Mus musculus [5]

CCCCCCCCCCCCCCCCCCCCCCCCCC(=O)N[C@@H](CO[C@H]1O[C@H](CO)[C@H](OCCCc2ccccc2)[C@H](O)[C@H]1O)[C@H](O)[C@H](O)CCCCCCCCCCCCCC
active: Mus musculus [6] | Mus musculus [7] | Mus musculus [8] | N38.2H4 | Mus musculus [1] | Splenocyte [9] | Mus musculus [2] tde | Mus musculus [3] tde | Mus musculus [4] | Mus musculus [10] | Mus musculus [5]

CCCCCCCCCCCCCCCCCCCCCCCCCC(=O)N[C@@H](CO[C@H]1O[C@H](CO)[C@H](OCCc2ccccc2)[C@H](O)[C@H]1O)[C@H](O)[C@H](O)CCCCCCCCCCCCCC
active: Mus musculus [6] | Mus musculus [7] | Mus musculus [8] | Mus musculus [11] | Mus musculus [2] tde | Mus musculus [3] tde | Splenocyte [12] | Mus musculus [10]

CCCCCCCCCCCCCCCCCCCCCCCCCC(=O)N[C@@H](CO[C@H]1O[C@H](CO)[C@H](OC(=O)c2ccccc2)[C@H](O)[C@H]1O)[C@H](O)[C@H](O)CCCCCCCCCCCCCC
active: Mus musculus [6] | Mus musculus [7] | Mus musculus [8] | N38.2H4 | Mus musculus [1] | Mus musculus [11] | Mus musculus [2] tde | Mus musculus [3] tde | Splenocyte [12]
